According to patent US9765075B2, “Substituted bridged urea analogs as sirtuin modulators” (GLAXOSMITHKLINE LLC, priority 2013, dated 2017):
Where two headings read alike, the source gives them in different places.

Molecular target: T1, SIRT1 (Homo sapiens, UniProt Q96EB6)
T1 sequence (Q96EB6 1-747): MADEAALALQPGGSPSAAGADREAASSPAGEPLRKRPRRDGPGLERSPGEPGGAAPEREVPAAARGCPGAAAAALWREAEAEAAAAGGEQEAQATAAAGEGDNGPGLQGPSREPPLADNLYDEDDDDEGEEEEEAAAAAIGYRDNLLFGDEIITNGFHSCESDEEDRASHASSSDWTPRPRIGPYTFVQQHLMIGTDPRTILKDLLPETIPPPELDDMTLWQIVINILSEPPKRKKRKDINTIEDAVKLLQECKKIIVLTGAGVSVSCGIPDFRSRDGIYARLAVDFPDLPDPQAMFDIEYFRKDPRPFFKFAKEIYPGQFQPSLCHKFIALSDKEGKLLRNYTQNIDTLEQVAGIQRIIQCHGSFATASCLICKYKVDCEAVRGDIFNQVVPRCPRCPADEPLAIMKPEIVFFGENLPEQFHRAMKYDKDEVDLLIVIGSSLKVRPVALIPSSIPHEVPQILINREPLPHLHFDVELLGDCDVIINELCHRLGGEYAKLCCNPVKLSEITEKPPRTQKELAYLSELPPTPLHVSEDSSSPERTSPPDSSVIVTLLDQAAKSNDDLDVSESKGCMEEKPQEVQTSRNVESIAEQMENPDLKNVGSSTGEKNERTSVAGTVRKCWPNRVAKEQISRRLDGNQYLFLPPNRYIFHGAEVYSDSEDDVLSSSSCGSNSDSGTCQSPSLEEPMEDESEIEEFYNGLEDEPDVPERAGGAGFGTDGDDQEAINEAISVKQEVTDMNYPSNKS
Test: Trp mass spectrometry assay (SIRT1 activation)
Format: biochemical
Settings: for Emax: percent maximum fold activation of SIRT1, read-out: Tryp % Fold Act
Method in brief: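 Activation is expressed as EC1.5, the concentration raising activity 50% above DMSO control, and as maximum percent of control. Mass-spec readout was OAADPR or deacetylated Trp peptide after a formic-acid-quenched 25-min, 25 °C reaction: 10 nM bacterially expressed His-SIRT1, 0.5 μM acetyl-p53-derived peptide, 120 μM NAD+, pH 7.5 HEPES with […].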

[1] = Trp mass spectrometry assay, EC1.5 = concentration of test compound that results in 150% activation of SIRT1
[2] = concentration of test compound that results in 150% activation of SIRT1, Trp peptide substrate
[3] = Trp mass spectrometry assay, EC1.5 = concentration giving 150% activation of SIRT1

Compound	Tryp AVG EC1.5 (μM) [1]	Emax (Trp mass spectrometry assay) [%]	Tryp AVG EC1.5 (μM) [2]	Emax (Trp peptide substrate) [%]	Tryp AVG EC1.5 (μM) [3]
O=C(Nc1cccnc1)N1c2nc(-c3cccc(C(F)(F)F)c3)ccc2N2CCC[C@@H]1C2 [Example 194]	A (EC1.5<1 μM)	≥ 150	–	–	–
Cc1cccnc1NC(=O)N1c2nc(-c3cccc(C(F)(F)F)c3)ccc2N2CC[C@H]1C2 [Example 14]	–	< 150	–	–	–
O=C(Nc1nnc(-c2cccnc2)o1)N1c2nc(-c3cccc(C(F)(F)F)c3)ccc2N2CC[C@H]1C2 [Example 721]	–	≥ 150	–	–	A (EC1.5<1 μM)
COc1cc(NC(=O)N2c3nc(-c4cccc(C(F)(F)F)c4)ccc3N3C[C@@H](O)[C@H]2C3)ncn1 [Example 644]	–	≥ 150	–	–	B (EC1.5 1-25 μM)
O=C(NCCCN1CCOCC1)N1c2nc(-c3cccc(C(F)(F)F)c3)ccc2N2CC[C@H]1C2 [Example 612]	–	–	B (EC1.5 1-25 μM)	≥ 150	–
Cc1cc(C)nc(NC(=O)N2c3nc(-c4cccc(Cl)c4)ccc3N3CC[C@H]2C3)c1 [Example 105]	B (EC1.5 1-25 μM)	≥ 150	–	–	–
Cc1csc2nc(NC(=O)N3c4nc(-c5cccc(C(F)(F)F)c5)ccc4N4CC[C@H]3C4)nn12 [Example 80]	–	≥ 150	–	–	–
CCC(=O)N1CCC(c2cccc(NC(=O)N3c4nc(-c5cccc(C(F)(F)F)c5)ccc4N4CC[C@H]3C4)c2)C1 (some centres unmarked) [Example 636]	–	≥ 150	–	–	A (EC1.5<1 μM)
Cc1[nH]ncc1-c1ccc2c(n1)N(C(=O)Nc1cccnc1)[C@H]1CCN2C1 [Example 490]	–	–	B (EC1.5 1-25 μM)	≥ 150	–
O=C(Nc1ncc(-c2ccccc2)s1)N1c2nc(-c3cccc(C(F)(F)F)c3)ccc2N2CC[C@H]1C2 [Example 734]	–	≥ 150	–	–	B (EC1.5 1-25 μM)
O=C(Nc1cncc(F)c1)N1c2nc(Cl)ccc2N2CC[C@H]1C2 [Example 259]	–	–	B (EC1.5 1-25 μM)	≥ 150	–
O=C(Nc1cccc(C2(C(F)(F)F)N=N2)c1)N1c2nc(-c3cccc(C(F)(F)F)c3)ccc2N2CCC[C@H]1C2 [Example 335]	–	–	A (EC1.5<1 μM)	≥ 150	–
Cc1cnccc1NC(=O)N1c2nc(-c3cccc(F)c3)ccc2N2CC[C@H]1C2 [Example 62]	–	≥ 150	–	–	–
O=C(Nc1cccnc1)N1c2nc(-c3cccc(Cl)c3)ccc2N2C[C@@H](O)[C@H]1C2 [Example 681]	–	≥ 150	–	–	B (EC1.5 1-25 μM)
O=C1OCc2ccc(NC(=O)N3c4nc(-c5cccc(C(F)(F)F)c5)ccc4N4CC[C@H]3C4)cc21 [Example 93]	A (EC1.5<1 μM)	≥ 150	–	–	–
O=C(Nc1ccc(F)cn1)N1c2nc(-c3ccccc3C(F)(F)F)ccc2N2CC[C@H]1C2 [Example 123]	C (EC1.5>25 μM)	< 150	–	–	–
NCc1ccc(NC(=O)N2c3nc(-c4cccc(C(F)(F)F)c4)ccc3N3CC[C@H]2C3)cc1 [Example 429]	–	–	B (EC1.5 1-25 μM)	≥ 150	–
O=C(O)c1cc(NC(=S)NCc2ccc(NC(=O)N3c4nc(-c5cccc(C(F)(F)F)c5)ccc4N4CCC[C@H]3C4)cc2)ccc1-c1c2ccc(=O)cc-2oc2cc(O)ccc12 [Example 563]	–	–	A (EC1.5<1 μM)	≥ 150	–
O=C(Nc1cccc(-c2cnco2)c1)N1c2nc(N3CCCC(C(F)(F)F)C3)ccc2N2CCC[C@@H]1C2 (some centres unmarked) [Example 299]	–	–	A (EC1.5<1 μM)	≥ 150	–
O=C(Nc1ccncn1)N1c2nc(-c3cncc(C(F)(F)F)c3)ccc2N2C[C@@H](O)[C@H]1C2 [Example 700]	–	≥ 150	–	–	B (EC1.5 1-25 μM)

Further lines, results first:

Tryp AVG EC1.5 (μM) [1]	Emax (Trp mass spectrometry assay) [%]	Tryp AVG EC1.5 (μM) [2]	Emax (Trp peptide substrate) [%]	Tryp AVG EC1.5 (μM) [3]	Compound
B (EC1.5 1-25 μM)	≥ 150	–	–	–	O=C(Nc1cccnn1)N1c2nc(C3CCCC(C(F)(F)F)C3)ccc2N2CC[C@H]1C2 (some centres unmarked) [Example 143]
–	–	C (EC1.5>25 μM)	≥ 150	–	Cc1ccncc1-c1ccc2c(n1)N(C(=O)Nc1cccnn1)[C@H]1CCCN2C1 [Example 520]
–	–	B (EC1.5 1-25 μM)	≥ 150	–	COc1cncc(-c2ccc3c(n2)N(C(=O)Nc2ccccn2)[C@H]2CCN3C2)c1 [Example 346]
–	–	B (EC1.5 1-25 μM)	≥ 150	–	Cc1cnc(NC(=O)N2c3nc(N4CCCC(C(F)(F)F)C4)ccc3N3CCC[C@H]2C3)s1 (some centres unmarked) [Example 296]
–	–	A (EC1.5<1 μM)	≥ 150	–	O=C(Nc1cccnc1)N1c2nc(-c3cccc(C(F)(F)F)c3)ccc2N2CCC[C@H]1C2 [314 (5)]
–	–	B (EC1.5 1-25 μM)	≥ 150	–	NC(=O)c1cncc(-c2ccc3c(n2)N(C(=O)Nc2ccccn2)[C@H]2CCN3C2)c1 [Example 371]
–	–	A (EC1.5<1 μM)	≥ 150	–	COc1cc(NC(=O)N2c3nc(-c4cccc(N5CC[C@@H](F)C5)c4)ccc3N3CC[C@H]2C3)ncn1 [Example 281]
–	–	B (EC1.5 1-25 μM)	≥ 150	–	Cc1csc(NC(=O)N2c3nc(N4CCCC(C(F)(F)F)C4)ccc3N3CCC[C@H]2C3)n1 (some centres unmarked) [Example 297]
–	–	C (EC1.5>25 μM)	< 150	–	O=C(Nc1ccncn1)N1c2nc(-c3cncc(F)c3)ccc2N2CCC1CC2 [Example 573]
–	–	B (EC1.5 1-25 μM)	≥ 150	–	CS(=O)(=O)Nc1cccc(-c2ccc3c(n2)N(C(=O)Nc2cnccn2)[C@H]2CCN3C2)c1 [Example 418]
B (EC1.5 1-25 μM)	≥ 150	–	–	–	CN(C)c1ccnc(NC(=O)N2c3nc(N4CCCC(C(F)(F)F)C4)ccc3N3CC[C@H]2C3)n1 (some centres unmarked) [Example 217]
–	–	C (EC1.5>25 μM)	< 150	–	CC(C)(C)OC(=O)N1CCCN(c2ccc3c(n2)N(C(=O)Nc2ccncn2)[C@H]2CCCN3C2)CC1 [Example 382]
–	–	B (EC1.5 1-25 μM)	≥ 150	–	O=C(Nc1cncc(F)c1)N1c2nc(N3CCCC(C(F)(F)F)C3)ccc2N2CC[C@H]1C2 (some centres unmarked) [Example 232]
–	–	A (EC1.5<1 μM)	≥ 150	–	O=C(Nc1cnccn1)N1c2nc(-c3cncc(Cl)c3)ccc2N2CC[C@H]1C2 [Example 275]
–	–	B (EC1.5 1-25 μM)	≥ 150	–	CC(C)(C)OC(=O)N1CCc2ccc(NC(=O)N3c4nc(-c5cccc(C(F)(F)F)c5)ccc4N4CC[C@H]3C4)cc2C1 [Example 609]
–	–	C (EC1.5>25 μM)	≥ 150	–	Cc1ccncc1-c1ccc2c(n1)N(C(=O)Nc1cnccn1)[C@H]1CCCN2C1 [Example 513]
–	–	A (EC1.5<1 μM)	≥ 150	–	COc1cc(NC(=O)N2c3nc(-c4cncc(C)c4)ccc3N3CCC[C@H]2C3)ncn1 [EX-527, reference compound]
–	–	B (EC1.5 1-25 μM)	≥ 150	–	N#Cc1ccccc1-c1ccc2c(n1)N(C(=O)Nc1cccnc1)[C@H]1CCCN2C1 [Example 438]
–	–	B (EC1.5 1-25 μM)	≥ 150	–	O=C(Nc1ccccn1)N1c2nc(-c3cccc(C(F)(F)F)c3)ccc2N2CCC[C@@H]1C2 [Example 272]
–	–	C (EC1.5>25 μM)	≥ 150	–	Cc1nc(NC(=O)N2c3nc(-c4cccc(N(C)C)c4)ccc3N3CCC[C@@H]2C3)sc1C [Example 252]
–	–	B (EC1.5 1-25 μM)	≥ 150	–	Cn1cc(-c2ccc3c(n2)N(C(=O)Nc2ccccn2)[C@H]2CCN3C2)cn1 [Example 349]
–	–	A (EC1.5<1 μM)	≥ 150	–	N#Cc1cccc(-c2ccc3c(n2)N(C(=O)Nc2cccnc2)[C@H]2CCCN3C2)c1 [Example 350]
–	–	B (EC1.5 1-25 μM)	≥ 150	–	O=C(Nc1ccc(F)cn1)N1c2nc(-c3cccc(N4CCC(F)(F)C4)c3)ccc2N2CC[C@H]1C2 [Example 257]
–	–	A (EC1.5<1 μM)	≥ 150	–	Cc1cc(-c2ccc3c(n2)N(C(=O)Nc2cnccn2)[C@H]2CCN3C2)ccn1 [Example 222]
–	≥ 150	–	–	–	COc1cc(NC(=O)N2c3nc(-c4cccc(C(F)(F)F)c4)ccc3N3CCC[C@H]2C3)nc(OC)n1 [Example 31]
–	–	C (EC1.5>25 μM)	< 150	–	Cc1ccncc1-c1ccc2c(n1)N(C(=O)Nc1ccccn1)[C@H]1CCCN2C1 [Example 505]
B (EC1.5 1-25 μM)	≥ 150	–	–	–	COc1nccc(NC(=O)N2c3nc(-c4cccc(C#N)c4)ccc3N3CC[C@H]2C3)n1 [Example 183]
–	–	A (EC1.5<1 μM)	≥ 150	–	O=C(Nc1cncc(F)c1)N1c2nc(-c3cccc(N4CCOCC4)c3)ccc2N2CCC[C@H]1C2 [Example 559]
